In the supplement of paper PMC10307832:

Assays:
Experiment in all cases: relative viability (nuclei count vs DMSO), 5 days (fraction); higher = more cells survive
[1] = compound: CC1=NC=CC(=C1)C2=CC=C(C=C2)CC(=O)NC3=CC=C(C=C3)C4=CN=CC=C4 [Wnt-C59] + Nc1ncn([C@H]2C[C@H](O)[C@@H](CO)O2)c(=O)n1 [Decitabine] (partner 2 µM)
Summary of the method: (§1)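 Relative viability is defined as nuclei in treated wells over nuclei in vehicle wells. Duplicate plates were run and medians reported. Lung cancer cell lines in 1536-well plates were dosed by pin tool one day after seeding, with one drug or with a fixed anchor-drug dose plus five library-drug doses (not always all listed) in √10 steps, and nuclei were counted after 5 days.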

[2] = compound: CS(=O)(=O)CCNCc1ccc(-c2ccc3ncnc(Nc4ccc(OCc5cccc(F)c5)c(Cl)c4)c3c2)o1 [Lapatinib] + CS(=O)(=O)N1CCN(Cc2cc3nc(-c4cccc5[nH]ncc45)nc(N4CCOCC4)c3s2)CC1 [Pictilisib] (partner 1 µM)
Summary of the method: as §1

[3] = compound: CS(=O)(=O)CCNCc1ccc(-c2ccc3ncnc(Nc4ccc(OCc5cccc(F)c5)c(Cl)c4)c3c2)o1 [Lapatinib] + O=C(c1cc(Cc2n[nH]c(=O)c3ccccc23)ccc1F)N1CCN(C(=O)C2CC2)CC1 [Olaparib] (partner 8 µM)
Summary of the method: as §1

[4] = compound: CS(=O)(=O)CCNCc1ccc(-c2ccc3ncnc(Nc4ccc(OCc5cccc(F)c5)c(Cl)c4)c3c2)o1 [Lapatinib] + Cc1cc(Nc2cc(N3CCN(C)CC3)nc(Sc3ccc(NC(=O)C4CC4)cc3)n2)n[nH]1 [Tozasertib] (partner 0.1 µM)
Summary of the method: as §1

| Cell Line | relative viability ([1]; first compound 0.001 µM) | relative viability ([1]; first compound 0.01 µM) | relative viability ([1]; first compound 0.03162 µM) | relative viability ([1]; first compound 0.1 µM) | relative viability ([2]; first compound 0.6325 µM) | relative viability ([2]; first compound 2 µM) | relative viability ([3]; first compound 0.06325 µM) | relative viability ([3]; first compound 0.2 µM) | relative viability ([3]; first compound 0.6325 µM) | relative viability ([3]; first compound 2 µM) | relative viability ([4]; first compound 0.06325 µM) | relative viability ([4]; first compound 0.2 µM) | relative viability ([4]; first compound 0.6325 µM) | relative viability ([4]; first compound 2 µM) | relative viability ([2]; first compound 0.02 µM) | relative viability ([2]; first compound 0.06325 µM) | relative viability ([2]; first compound 0.2 µM) | relative viability ([3]; first compound 0.02 µM) | relative viability ([4]; first compound 0.02 µM) |
| --- | --- | --- | --- | --- | --- | --- | --- | --- | --- | --- | --- | --- | --- | --- | --- | --- | --- | --- | --- |
| NCI-H1793 | 0.458 | 0.461 | 0.615 | 0.521 | 0.368 | 0.318 | 0.363 | 0.598 | 0.537 | 0.449 | 0.286 | 0.213 | 0.185 | 0.142 | – | – | – | – | – |
| LXF-289 | 0.396 | 0.369 | 0.446 | 0.386 | 0.784 | 0.737 | 0.97 | 1.04 | 1.04 | 0.998 | 0.155 | 0.177 | 0.173 | 0.168 | 0.762 | 0.717 | 0.744 | 1.06 | 0.178 |
| COR-L 105 | 0.613 | 0.618 | 0.663 | 0.586 | 0.419 | 0.307 | 0.657 | 0.647 | 0.669 | 0.406 | 0.351 | 0.355 | 0.294 | 0.244 | 0.33 | 0.329 | 0.35 | 0.603 | 0.351 |
| HCC-827 | 0.399 | 0.331 | 0.385 | 0.334 | 1.02 | 0.574 | 0.656 | 0.533 | 0.678 | 0.549 | 0.418 | 0.414 | 0.412 | 0.144 | 0.947 | 1.13 | 0.891 | 0.591 | 0.41 |
| PC-14 | 0.246 | 0.283 | 0.223 | 0.243 | 0.804 | 0.121 | 0.286 | 0.291 | 0.263 | 0.217 | 0.604 | 0.638 | 0.551 | 0.356 | 0.543 | 0.641 | 0.768 | 0.209 | – |
| NCI-H1915 | 0.261 | 0.261 | 0.262 | 0.251 | 0.981 | 0.949 | 0.277 | 0.275 | 0.243 | 0.237 | 0.367 | 0.437 | 0.383 | 0.319 | – | 0.909 | 0.982 | – | – |
| LCLC-103H | 0.729 | 0.758 | 0.785 | 0.698 | 0.636 | 0.494 | 0.664 | 0.762 | 0.719 | 0.762 | 0.448 | 0.455 | 0.407 | 0.384 | – | 0.555 | 0.695 | 0.786 | 0.419 |
| EPLC-272H | 0.443 | 0.369 | 0.472 | 0.364 | 0.381 | 0.293 | 0.544 | 0.767 | 0.614 | 0.527 | – | 0.21 | 0.2 | 0.239 | – | 0.207 | 0.386 | 0.7 | – |
| NCI-H2126 | 0.654 | 0.576 | 0.567 | 0.575 | 0.49 | 0.431 | 0.757 | 0.894 | 0.825 | 0.794 | 0.664 | 0.844 | 0.712 | 0.547 | – | 0.402 | 0.474 | 0.933 | – |
